Among the data in BindingDB's records for patent US11220494 (Pfizer Inc., 2022) are Ki values, retold here.

The term Ki denotes a dissociation constant, usually derived from enzyme kinetics or from competition with a known ligand.

The test addresses Cyclin-dependent kinase 6/G1/S-specific cyclin-D3 (Homo sapiens, UniProt Q00534+P30281). The test can be described thus: Mobility Shift Assay. How it is done: The purpose of the CDK6/Cyclin D3 assay is to evaluate the inhibition (% inhibition, Kiapp and Ki values) in the presence of small molecule inhibitors by using a fluorescence based microfluidic mobility shift assay. […] The mobility shift assay electrophoretically separates the fluorescently labeled peptides (substrate and phosphorylated product) following the kinase reaction. Both substrate and product are measured and the ratio of these values is used to generate % conversion of substrate to product by the LabChip EZ Reader. […] The reaction was stopped after 95 minutes by the addition of 50 μL of 30 mM EDTA. Ki determinations were made from a plot of the fractional velocity as a function of inhibitor concentration fit to the Morrison equation with the enzyme concentration as a variable.

Cyclin-dependent kinase 6/G1/S-specific cyclin-D3, sequence (Q00534 whole entry): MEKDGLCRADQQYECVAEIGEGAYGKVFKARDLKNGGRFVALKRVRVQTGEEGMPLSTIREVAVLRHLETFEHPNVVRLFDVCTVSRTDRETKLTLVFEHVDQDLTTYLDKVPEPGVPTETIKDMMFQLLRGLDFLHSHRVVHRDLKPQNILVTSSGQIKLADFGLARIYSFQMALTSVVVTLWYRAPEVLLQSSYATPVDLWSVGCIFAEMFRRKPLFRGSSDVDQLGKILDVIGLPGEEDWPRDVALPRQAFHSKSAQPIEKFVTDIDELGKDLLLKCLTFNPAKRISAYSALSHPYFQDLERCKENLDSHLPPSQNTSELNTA
Cyclin-dependent kinase 6/G1/S-specific cyclin-D3, sequence (P30281 whole entry): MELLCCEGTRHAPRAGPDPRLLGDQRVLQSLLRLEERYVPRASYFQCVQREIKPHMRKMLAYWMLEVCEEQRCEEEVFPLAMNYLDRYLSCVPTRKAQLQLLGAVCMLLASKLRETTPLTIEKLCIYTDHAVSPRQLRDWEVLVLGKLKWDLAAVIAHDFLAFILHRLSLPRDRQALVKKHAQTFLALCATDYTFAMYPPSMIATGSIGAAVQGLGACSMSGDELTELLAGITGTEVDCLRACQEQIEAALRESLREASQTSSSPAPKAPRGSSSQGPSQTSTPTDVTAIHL

As for `CC(C)n1c([C@H](C)O)nc2c(F)cc(-c3cc(N[C@@H]4CCN(S(C)(=O)=O)C[C@H]4O)ncc3Cl)cc21` [US11220494, Example E01], the Ki was 1.4 nM.
